These results are taken from paper PMC6220303 (EMBO Molecular Medicine, 2018).

The subject of data set [1] is Aβ40 in rat brain tissue. As to the kind of experiment: Aβ40 in rat brain and CSF after single oral dose. It is filed as in vivo. The method, then:
Therefore, we measured Aβ40 in rat brain tissue 4 h after oral administration over a range of doses. […] In addition, the effect‐over‐time curves for brain and CSF almost completely superimposed, showing that Aβ pharmacodynamics in CSF mirrors very well that in brain tissue.
Experiments were carried out in accordance with the guidelines of the Swiss Federal and Cantonal veterinary offices for care and use of laboratory animals or the Canadian Council on Animal Care (Ottawa, Canada), and the ARRIVE guidelines. Studies described in this report were approved by the Swiss Cantonal Veterinary Authority of Basel City, Switzerland, and performed according to animal license numbers BS‐2063, BS‐2077, and BS‐1094. Methods employed in PK/PD studies in rats and dogs are described (Neumann et al, 2015).
(§1) Electrochemiluminescence immunoassays (Mesoscale Diagnostics, Rockville, MD, USA) were used to determine Aβ38, Aβ40, Aβ42, sAPPα, and sAPPβ. For studies in normal mice and rats, the endogenous Aβ40 was extracted from the brain homogenate with 1% Triton X‐100, and the 4G8‐based assay kit was used for quantification according to the manufacturer's instructions. CSF was collected from the cisterna magna and also analyzed using the 4G8 kit. For studies in dogs, CSF was collected via a ventricular port, and the 6E10‐based Mesoscale Diagnostics kit for Aβ was used. For studies in APP23 mice, Aβ40 and Aβ42 were determined after extraction with 70% formic acid and subsequent neutralization.

Data set [2] has as its system APP23‐transgenic mice. As to the kind of experiment: Chronic treatment of APP23-transgenic mice, 6 months in food. It is filed as in vivo, mouse. On the procedure: The total amount of Aβ40 and Aβ42 in formic acid‐solubilized forebrain was determined by Aβ immunoassay. […] Next, we investigated the effects of long‐term Aβ reduction on downstream pathology relevant for Alzheimer's disease, in particular neuroinflammation. Specifically, we used double‐immunofluorescence staining with NT12+anti‐Iba1 and NT12+anti‐GFAP to examine the number and localization of microglia and activated astrocytes, respectively (Fig 4E). […] The reason for the different sensitivity of microglia and astrocytes distant to plaques is currently not clear.
as §1
Amyloid plaques were stained using the Novartis-internal rabbit anti-Aβ antibody NT12, which recognizes all forms of Aβ (Neumann et al, 2015). Activated astrocytes were detected using a commercial rabbit anti-GFAP (Z0334, Dako Schweiz GmbH, Baar, Switzerland, dilution 1:2000 in antibody diluent). Microglia cells were detected using a rabbit anti-Iba1 antibody (019-19741, Wako Chemicals GmbH, Neuss, Germany, dilution 1:200 in antibody diluent). All stainings were performed using the fully automated instrument Ventana Discovery® Ultra (Roche Diagnostics Schweiz AG, Rotkreuz, Switzerland). All chemicals were provided by Roche Diagnostic. Paraffin-embedded brain tissue sections of 3 µm were freshly cut and collected on SuperFrost+ slides. The tissues sections were de-paraffinized and rehydrated under solvent-free conditions (EZprep solution) followed by antigen retrieval (demasking) performed by heat retrieval cycles for 32 min in EDTA-based buffer (CC1 solution). Subsequently, slides were blocked for 4 min using the DISC Inhibitor RUO (reference 07017944001). The primary antibody anti-NT12 diluted at 1:20 000 in antibody diluent was manually added to tissue sections and incubated for 1h at room temperature. A short post-fixation (glutaraldehyde at 0.05%) was done before applying the […]
Detection was performed using the DISCOVERY FITC® following the manufacturer’s recommendations. Slides were then heat denaturated at 92°C for 20 min before a manual application of the second primary antibody (anti-GFAP diluted at 1:2000, anti-Iba1 diluted at 1:200) and incubated for 1h at room temperature. Sections were then incubated for 20 min at room temperature with UltraMap-anti-Rabbit HRP antibody, and the DISCOVERY Rhodamine kit […]
The slides were washed and mounted using Prolong® Gold antifade reagent (P36931, ThermoFisher, Switzerland) and further scanned with the Hamamatsu slide scanner instrument […]
(NanoZoomer 2.0 HT, scanning software NDP-Scan Version 2.5, Hamamatsu Photonics France, Swiss Office, Solothurn, Switzerland) at the 40x objective. The scanning settings were as follow: the exposure time with the DAPI filter was set at 57 ms, as was the FITC filter. The exposure time for the TRITC filter (detection of Rhodamine) was set at 14.2 ms.
For the quantitative plaque and blood vessel-associated Aβ evaluation based on image analysis, a proprietary image analysis platform (ASTORIA, Automated Stored Image Analysis) was developed based on MS Visual Studio 2010 and many functions from Matrox MIL V9 libraries (Matrox Inc, Quebec, Canada).
For the Aβ plaque, neuroinflammation and blood vessel analyses, the following sequence of steps was performed. (1) Slides were scanned with Hamamatsu Nanozoomer at 40x […]
magnification. […]

Data set [3] has as its system healthy participants. Briefly: Safety and tolerability in early clinical studies. Type of data set: in vivo, human. The following applies: for dose up to which no dose-limiting safety or tolerability findings were observed: participants ≥ 60 years. On the procedure: Only the single ascending dose studies were performed in adults 18–55 or 20–45 years of age, whereas the participants in all subsequent single and multiple dose studies were cognitively normal male and post‐menopausal female subjects ≥ 60 years of age, similar to the age range of our target population in the Generation Program.
(§2) For further details, see the Appendix Table S10 in Appendix and the accompanying clinical protocols synopsis (Appendix Table S11).

Data set [4] has as its system healthy participants ≥ 60 years. Briefly: Adverse events after once-daily dosing over two weeks (Appendix Table S7). It is filed as in vivo, human.
Description: as §2
Appendix Table S3. Overview of completed clinical studies with CNP520
Study description Population No. of Participants Dose/Frequency […]
First-in-human, randomized, 18-55 yrs 38 / 14 Single dose (10, 30, 90, […]
controlled, single and multiple CNP520 vs placebo) ascending oral dose study to Single dose (10, 90, 300,

Data set [5] concerns the target Lipoxygenase 5-LO (Homo sapiens, UniProt P09917). As to the kind of experiment: Receptor panel. It is filed as biochemical. The following applies: read-out: Inhibition at 10 µM. On the procedure:
Cellular Aβ release assays were done in CHO cells stably transfected with human wild‐type and human APP were done as described (Neumann et al, 2015). Determinations of logD, pKa, and binding to brain homogenates were done internally at Novartis, Basel. Plasma protein binding was determined by equilibrium dialysis using diluted plasma from the corresponding species. MDR‐1‐MDCK cells were obtained from Prof. A. Berns, Netherlands Cancer Institute, Amsterdam NL, and bi‐directional transport measurements were done as described (Rueeger et al, 2011). Receptor binding assays were done against an internal receptor panel and externally at Ricerca Biosciences, Peitou, Taiwan. In vitro binding and cellular patch clamp assays for hERG were done at Preclinical Safety, Novartis, Basel.

Lipoxygenase 5-LO, sequence (P09917 whole entry): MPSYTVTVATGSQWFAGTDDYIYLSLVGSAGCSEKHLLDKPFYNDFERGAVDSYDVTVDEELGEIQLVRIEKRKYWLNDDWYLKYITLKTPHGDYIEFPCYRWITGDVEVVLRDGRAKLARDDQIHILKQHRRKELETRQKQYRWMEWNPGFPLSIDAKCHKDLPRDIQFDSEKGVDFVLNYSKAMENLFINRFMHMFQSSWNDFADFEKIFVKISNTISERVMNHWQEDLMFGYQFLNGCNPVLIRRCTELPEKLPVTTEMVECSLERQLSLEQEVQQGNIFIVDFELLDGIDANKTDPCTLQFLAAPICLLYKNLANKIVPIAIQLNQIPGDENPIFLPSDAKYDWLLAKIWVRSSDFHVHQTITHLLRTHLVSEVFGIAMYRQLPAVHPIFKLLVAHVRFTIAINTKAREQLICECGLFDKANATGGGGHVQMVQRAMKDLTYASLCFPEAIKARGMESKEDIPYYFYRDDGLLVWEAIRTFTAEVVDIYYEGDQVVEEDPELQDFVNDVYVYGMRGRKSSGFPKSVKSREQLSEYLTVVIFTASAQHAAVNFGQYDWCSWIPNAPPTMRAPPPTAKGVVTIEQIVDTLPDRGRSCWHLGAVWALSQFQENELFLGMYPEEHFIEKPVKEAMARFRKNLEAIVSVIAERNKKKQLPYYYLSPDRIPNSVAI

A word on the ED50: it is the midpoint of the dose-response relation. What is called inhibition is the percentage by which the read-out fell short of the control. Turning to `C[C@@]1(c2nc(NC(=O)c3ncc(C(F)(F)F)cc3Cl)ccc2F)CO[C@@](C)(C(F)(F)F)C(N)=N1` [CNP520], the “Aβ40 reduction in rat brain and CSF” value in data set [1] (24 h after single oral 30 μmol/kg (15.4 mg/kg) dose) is recorded as ~ 50%. In addition, the ED50 in data set [1] (Rattus norvegicus, read-out: ED50, oral dose required for 50% lowering of rat brain Aβ40, 4 h after oral administration) came to 2.4 ± 0.31 mg/kg. Also, the “reduction of Aβ40 in rat brain tissue compared to untreated controls” value in data set [1] (highest dose, 4 h after oral administration, mean ± SD) turned out to be 89.3 ± 4.5%. Besides, in data set [2] (4 and 40 mg/kg/day in food), the “CNP520 concentration in blood and brain at end of study” value is recorded as “approximately dose‐proportional”. In addition, the “total Aβ-plaque area in the cortex (normalized to sample area) compared with vehicle” value in data set [2] (4 and 40 mg/kg/day in food, 6 months, dose-dependent) is “decreased”. In data set [2] (6 months), the “sAPPα in mouse brain” value is “increased”. In addition, the “increase in GFAP-stained astrocytes” value in data set [2] (6 months, dose-dependent) is “prevented this increase”. Moreover, the “sAPPβ in mouse brain” value in data set [2] (6 months, dose-dependent) is “decreased”. Besides, the “formic acid-soluble Aβ40 and Aβ42 in forebrain compared with vehicle” value in data set [2] (high dose 40 mg/kg/day, 6 months) is reported as “profoundly reduced”. Besides, the “effect on CAA (vascular Aβ) in APP23 mice” value in data set [2] (separate study, first data, authors' response in review file) is reported as “reduction of vascular Aβ”. Moreover, in data set [3] (3-month study, 4% for placebo), the “skin-related AEs, mostly driven by pruritus” value stood at 18%. Also, the abuse potential result in data set [3] (clinical studies) is “no signal for abuse potential”. Also, the “dose up to which no dose-limiting safety or tolerability findings were observed” value in data set [3] (for 2 weeks (maximum multiple dose tested)) is no more than 300 mg; in data set [3] (for 3 months), “up to 85 mg”; in data set [3] (single dose), “up to 750 mg”. Besides, in data set [4] (10 mg once daily, N = 9), the “AE incidence: Respiratory, thoracic and mediastinal disorders” value was 1 (11.1) n (%). Also, the “Participants with any AE(s)” value in data set [4] (10 mg once daily, N = 9) is given as 6 (66.7) n (%). Besides, the “AE incidence: Renal and urinary disorders” value in data set [4] (30 mg once daily, N = 9) is 0 (0.0) n (%). The “AE incidence: Ear and labyrinth disorders” value in data set [4] (300 mg once daily, N = 8) is 0 (0.0) n (%). Further, the inhibition at 10 µM in data set [5] stood at 66%.
